Numbers after ± are expanded uncertainties.
Conditions: Liquid, Ebulliometric method (Recirculating still)

Compound | vapor or sublimation pressure (317.95 K) [kPa] | vapor or sublimation pressure (336.85 K) [kPa] | vapor or sublimation pressure (349.15 K) [kPa] | vapor or sublimation pressure (361.65 K) [kPa] | vapor or sublimation pressure (381.35 K) [kPa] | vapor or sublimation pressure (394.25 K) [kPa]
C1CCCCC1 [cyclohexane] | 29.77 ± 0.34 | 58.85 ± 0.77 | 87.65 ± 1.2 |  |  | 
CCCCOC(C)=O [butyl ethanoate] |  |  |  | 29.77 ± 0.34 | 58.85 ± 0.79 | 87.65 ± 1.3
